Assay results published in US7994185B2, “Benzene sulfonamide thiazole and oxazole compounds” (Glaxo Smith Kline LLC, priority 2008, dated 2011).
Where a name gives a salt, the structure may show the parent alone. Read-outs that look alike come from different tables or passages of the source.

Experiments:
[1] = biological target: T1, BRAFV600E full-length (amino acids 2-766) (Homo sapiens, UniProt P15056, V600E); assay: B-Raf Accelerated MEK ATPase assay (BRAMA); type: biochemical; details: categorized
T1 construct: His6-tagged BRAFV600E full-length (amino acids 2-766); His6; made in house; host or cells: baculovirus expression system (insect cells)
Procedure, shortened: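 Coupled-enzyme readout: ADP generated by MEK-mediated ATP hydrolysis, uncoupled from ERK phosphorylation, is linked to NADH oxidation through pyruvate kinase and lactate dehydrogenase.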

[2] = tested on: Human melanoma cancer cells (SK-MEL-28); assay: Cell growth inhibition assay (CellTiter-Glo), SK-MEL-28; type: cell-based
[3] = tested on: Human colon tumor cells (Colo205); assay: Cell growth inhibition assay (CellTiter-Glo), Colo205; type: cell-based
Procedure, shortened: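 Luminescent ATP read-out (CellTiter-Glo) served as a proxy for cell number; percent growth inhibition was calculated against DMSO vehicle wells. Cells were treated for 3 days at 37 °C with serially diluted compound, 0.2% DMSO final.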

[4] = B-Raf Activity, Table 1a, highest pIC50 for the one or more runs
[5] = Table 1b, later runs, average pIC50 for the one or more runs, read-out: B-Raf pIC50 (converted)
[6] = SK-MEL-28, 72 h, Table 3a, 3 days incubation, read-out: Activity in SK-MEL-28 Tumor Cells
[7] = SK-MEL-28, Table 3b, later runs, average for the one or more runs, categorized, read-out: IC50 for SK-MEL-28
[8] = COLO 205, 72 h, Table 2a, 3 days incubation, read-out: Activity in Colo205 Tumor Cells
[9] = COLO 205, Table 2b, later runs, average for the one or more runs, categorized, read-out: IC50 for Colo205
[10] = B-Raf pIC50, Table 1b, later runs, average pIC50 for the one or more runs

T1 sequence (P15056 2-766 V600E): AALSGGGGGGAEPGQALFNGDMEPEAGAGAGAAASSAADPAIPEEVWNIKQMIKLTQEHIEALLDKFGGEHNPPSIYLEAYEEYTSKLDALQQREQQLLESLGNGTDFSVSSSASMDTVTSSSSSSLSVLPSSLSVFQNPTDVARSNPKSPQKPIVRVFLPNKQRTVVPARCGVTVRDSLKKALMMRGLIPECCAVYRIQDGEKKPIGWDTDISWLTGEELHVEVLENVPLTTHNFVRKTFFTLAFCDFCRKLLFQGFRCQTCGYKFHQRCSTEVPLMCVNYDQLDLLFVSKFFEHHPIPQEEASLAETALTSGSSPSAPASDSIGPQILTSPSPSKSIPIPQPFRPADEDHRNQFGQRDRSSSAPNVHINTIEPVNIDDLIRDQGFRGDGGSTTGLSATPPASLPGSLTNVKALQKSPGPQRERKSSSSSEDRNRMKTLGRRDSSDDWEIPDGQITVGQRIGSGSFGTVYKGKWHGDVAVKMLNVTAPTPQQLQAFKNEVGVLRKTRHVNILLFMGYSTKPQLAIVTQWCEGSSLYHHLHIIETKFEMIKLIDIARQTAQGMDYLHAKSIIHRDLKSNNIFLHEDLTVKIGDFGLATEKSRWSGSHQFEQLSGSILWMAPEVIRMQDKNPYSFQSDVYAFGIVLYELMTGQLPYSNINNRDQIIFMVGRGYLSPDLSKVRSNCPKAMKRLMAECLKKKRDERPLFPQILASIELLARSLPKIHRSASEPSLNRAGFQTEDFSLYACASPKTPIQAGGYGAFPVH

Nc1nccc(-c2sc(C3CCOC3)nc2-c2cccc(NS(=O)(=O)c3c(F)cccc3F)c2F)n1 (stereo not shown) [Example 71, N-{3-[5-(2-Amino-4-pyrimidinyl)-2-(tetrahydro-3-furanyl)-1,3-thiazol-4-yl]-2-fluorophenyl}-2,6-difluorobenzenesulfonamide]
IC50 [1, 4]: < 100 nM | IC50 [1, 5]: 3.16 to 31.6 nM | IC50 [2, 6]: 100 to 1000 nM | IC50 [2, 7]: 100 to 1000 nM | IC50 [3, 8]: 100 to 1000 nM | IC50 [3, 9]: 100 to 1000 nM

CC(C)c1nc(-c2ccc(F)c(NS(=O)(=O)c3cc(F)ccc3F)c2)c(-c2ccnc(NCC3CCNCC3)n2)s1 [Example 128]
IC50 [1, 4]: < 100 nM | IC50 [1, 5]: 3.16 to 31.6 nM | IC50 [2, 6]: > 1000 nM | IC50 [3, 8]: > 1000 nM | IC50 [3, 9]: 1000 to 10000 nM

CC(C)(C)c1nc(-c2cccc(NS(=O)(=O)c3ccoc3)c2F)c(-c2ccncn2)s1 [Example 256, N-{3-[2-(1,1-dimethylethyl)-5-(4-pyrimidinyl)-1,3-thiazol-4-yl]-2-fluorophenyl}-3-furansulfonamide]
IC50 [1, 10]: ≤ 3.16 nM | IC50 [2, 7]: < 100 nM | IC50 [3, 9]: < 100 nM

Cn1cc(S(=O)(=O)Nc2cccc(-c3nc(C(C)(C)C)sc3-c3ccnc(N)n3)c2F)cn1 [Example 283, N-{3-[5-(2-amino-4-pyrimidinyl)-2-(1,1-dimethylethyl)-1,3-thiazol-4-yl]-2-fluorophenyl}-1-methyl-1H-pyrazole-4-sulfonamide hydrochloride]
IC50 [1, 5]: 3.16 to 31.6 nM | IC50 [2, 7]: 100 to 1000 nM | IC50 [3, 9]: 100 to 1000 nM

CC(C)c1nc(-c2cccc(NS(=O)(=O)c3cnn(C)c3)c2)c(-c2ccnc(NCCS(C)(=O)=O)n2)s1 [Example 35, 1-Methyl-N-{3-[2-(1-methylethyl)-5-(2-{[2-(methylsulfonyl)ethyl]amino}-4-pyrimidinyl)-1,3-thiazol-4-yl]phenyl}-1H-pyrazole-4-sulfonamide trifluoroacetic acid salt]
IC50 [1, 4]: < 100 nM | IC50 [1, 5]: 3.16 to 31.6 nM | IC50 [2, 6]: 100 to 1000 nM | IC50 [2, 7]: 100 to 1000 nM | IC50 [3, 8]: 100 to 1000 nM | IC50 [3, 9]: 100 to 1000 nM

CC(C)(C)c1nc(-c2cccc(NS(=O)(=O)C3CCCCC3)c2F)c(-c2ccnc(N)n2)s1 [Example 63, N-{3-[5-(2-Amino-4-pyrimidinyl)-2-(1,1-dimethylethyl)-1,3-thiazol-4-yl]-2-fluorophenyl}cyclohexanesulfonamide]
IC50 [1, 4]: 100 to 1000 nM | IC50 [1, 10]: 31.6 to 1000 nM | IC50 [2, 6]: 100 to 1000 nM | IC50 [2, 7]: 100 to 1000 nM | IC50 [3, 8]: 100 to 1000 nM | IC50 [3, 9]: 100 to 1000 nM

CS(=O)(=O)N[C@H]1CC[C@H](Nc2nccc(-c3sc(N4CCCC4)nc3-c3cccc(NS(=O)(=O)c4c(F)cccc4F)c3)n2)CC1 [Example 17, 2,6-Difluoro-N-{3-[5-[2-({trans-4-[(methylsulfonyl)amino]cyclohexyl}amino)-4-pyrimidinyl]-2-(1-pyrrolidinyl)-1,3-thiazol-4-yl]phenyl}benzenesulfonamide]
IC50 [1, 4]: < 100 nM | IC50 [1, 5]: 3.16 to 31.6 nM | IC50 [2, 6]: < 100 nM | IC50 [2, 7]: < 100 nM | IC50 [3, 8]: < 100 nM | IC50 [3, 9]: < 100 nM

Cc1nccc(-c2sc(N3CCOCC3)nc2-c2cccc(NS(=O)(=O)c3cc(F)ccc3F)c2Cl)n1 [Example 28, N-{2-Chloro-3-[5-(2-methyl-4-pyrimidinyl)-2-(4-morpholinyl)-1,3-thiazol-4-yl]phenyl}-2,5-difluorobenzenesulfonamide]
IC50 [1, 4]: < 100 nM | IC50 [1, 5]: 3.16 to 31.6 nM | IC50 [2, 6]: < 100 nM | IC50 [2, 7]: < 100 nM | IC50 [3, 8]: < 100 nM | IC50 [3, 9]: < 100 nM

CC(C)c1nc(-c2ccc(F)c(NS(=O)(=O)c3cc(F)ccc3F)c2)c(-c2ccnc(NC3CCN(S(C)(=O)=O)CC3)n2)s1 [Example 75, 2,5-Difluoro-N-{2-fluoro-5-[2-(1-methylethyl)-5-(2-{[1-(methylsulfonyl)-4-piperidinyl]amino}-4-pyrimidinyl)-1,3-thiazol-4-yl]phenyl}benzenesulfonamide]
IC50 [1, 4]: < 100 nM | IC50 [1, 10]: ≤ 3.16 nM | IC50 [2, 6]: < 100 nM | IC50 [2, 7]: < 100 nM | IC50 [3, 8]: < 100 nM | IC50 [3, 9]: < 100 nM

CC(C)(C)c1nc(-c2ccc(F)c(NS(=O)(=O)c3c(F)cccc3F)c2)c(-c2ccnc(N[C@H]3CC[C@H](NS(C)(=O)=O)CC3)n2)s1 [Example 16, N-(5-{2-(1,1-Dimethylethyl)-5-[2-({trans-4 [(methylsulfonyl)amino]cyclohexyl}amino)-4-pyrimidinyl]-1,3-thiazol-4-yl}-2-fluorophenyl)-2,6-difluorobenzenesulfonamide]
IC50 [1, 4]: < 100 nM | IC50 [1, 5]: 3.16 to 31.6 nM | IC50 [2, 6]: < 100 nM | IC50 [2, 7]: < 100 nM | IC50 [3, 8]: < 100 nM | IC50 [3, 9]: < 100 nM

Cc1ccc(S(=O)(=O)Nc2cccc(-c3nc(C(C)(C)C)sc3-c3ccnc(N)n3)c2F)cc1 [Example 146]
IC50 [1, 4]: < 100 nM | IC50 [1, 10]: 31.6 to 1000 nM | IC50 [2, 6]: 100 to 1000 nM | IC50 [2, 7]: 100 to 1000 nM | IC50 [3, 8]: 100 to 1000 nM | IC50 [3, 9]: 100 to 1000 nM

O=S(=O)(Nc1cccc(-c2nc(N3CCOCC3)sc2-c2ccncn2)c1F)c1cc(F)ccc1F [Example 227, 2,5-difluoro-N-{2-fluoro-3-[2-(4-morpholinyl)-5-(4-pyrimidinyl)-1,3-thiazol-4-yl]phenyl}benzenesulfonamide]
IC50 [1, 10]: ≤ 3.16 nM | IC50 [2, 7]: < 100 nM | IC50 [3, 9]: < 100 nM

CC(C)c1nc(-c2ccc(F)c(NS(=O)(=O)c3c(F)cccc3F)c2)c(-c2ccnc(NCC(F)F)n2)s1 [Example 93, N-{5-[5-{2-[(2,2-Difluoroethyl)amino]-4-pyrimidinyl}-2-(1-methylethyl)-1,3-thiazol-4-yl]-2-fluorophenyl}-2,6-difluorobenzenesulfonamide]
IC50 [1, 4]: < 100 nM | IC50 [1, 5]: 3.16 to 31.6 nM | IC50 [2, 6]: 100 to 1000 nM | IC50 [2, 7]: 100 to 1000 nM | IC50 [3, 8]: 100 to 1000 nM | IC50 [3, 9]: 100 to 1000 nM

Cc1ccc(F)c(S(=O)(=O)Nc2cccc(-c3nc(C(C)(C)C)sc3-c3ccnc(N)n3)c2F)c1 [Example 145]
IC50 [1, 4]: < 100 nM | IC50 [1, 10]: 31.6 to 1000 nM | IC50 [2, 6]: 100 to 1000 nM | IC50 [2, 7]: 100 to 1000 nM | IC50 [3, 8]: 100 to 1000 nM | IC50 [3, 9]: 100 to 1000 nM

Nc1nccc(-c2sc(N3CCOCC3)nc2-c2c(F)ccc(NS(=O)(=O)c3c(F)cccc3F)c2F)n1 [Example 106, N-{3-[5-(2-Amino-4-pyrimidinyl)-2-(4-morpholinyl)-1,3-thiazol-4-yl]-2,4-difluorophenyl}-2,6-difluorobenzenesulfonamide]
IC50 [1, 4]: < 100 nM | IC50 [1, 5]: 3.16 to 31.6 nM | IC50 [2, 6]: 100 to 1000 nM | IC50 [2, 7]: 100 to 1000 nM | IC50 [3, 8]: 100 to 1000 nM | IC50 [3, 9]: 100 to 1000 nM

CC(C)CNc1nccc(-c2sc(N3CCOCC3)nc2-c2ccc(F)c(NS(=O)(=O)c3cc(F)ccc3F)c2)n1 [Example 139]
IC50 [1, 4]: < 100 nM | IC50 [1, 5]: 3.16 to 31.6 nM | IC50 [2, 6]: < 100 nM | IC50 [2, 7]: 100 to 1000 nM | IC50 [3, 8]: < 100 nM | IC50 [3, 9]: 100 to 1000 nM

CC(C)c1nc(-c2ccc(F)c(NS(=O)(=O)c3ccc(F)cc3F)c2)c(-c2ccnc(NCCS(C)(=O)=O)n2)s1 [Example 29, 2,4-Difluoro-N-{2-fluoro-5-[2-(1-methylethyl)-5-(2-{[2-(methylsulfonyl)ethyl]amino}-4-pyrimidinyl)-1,3-thiazol-4-yl]phenyl}benzenesulfonamide]
IC50 [1, 4]: < 100 nM | IC50 [1, 5]: 3.16 to 31.6 nM | IC50 [2, 6]: 100 to 1000 nM | IC50 [2, 7]: 100 to 1000 nM | IC50 [3, 8]: 100 to 1000 nM | IC50 [3, 9]: 100 to 1000 nM

CS(=O)(=O)N1CCC(Nc2nccc(-c3sc(N4CCOCC4)nc3-c3cccc(NS(=O)(=O)c4ccco4)c3F)n2)CC1 [Example 41, N-{2-Fluoro-3-[5-(2-{[1-(methylsulfonyl)-4-piperidinyl]amino}-4-pyrimidinyl)-2-(4-morpholinyl)-1,3-thiazol-4-yl]phenyl}-2-furansulfonamide]
IC50 [1, 4]: < 100 nM | IC50 [1, 10]: ≤ 3.16 nM | IC50 [2, 6]: < 100 nM | IC50 [2, 7]: 100 to 1000 nM | IC50 [3, 8]: < 100 nM | IC50 [3, 9]: < 100 nM

CC(C)c1nc(-c2ccc(F)c(NS(=O)(=O)c3cc(F)ccc3F)c2)c(-c2ccnc(NCCN3CCCCC3)n2)s1 [Example 131]
IC50 [1, 4]: < 100 nM | IC50 [1, 10]: 31.6 to 1000 nM | IC50 [2, 6]: > 1000 nM | IC50 [2, 7]: 1000 to 10000 nM | IC50 [3, 8]: > 1000 nM

CC(C)CNc1nccc(-c2sc(C(C)C)nc2-c2cccc(NS(=O)(=O)c3cccnc3)c2)n1 [Example 155]
IC50 [1, 4]: < 100 nM | IC50 [1, 10]: ≤ 3.16 nM | IC50 [2, 6]: 100 to 1000 nM | IC50 [2, 7]: 100 to 1000 nM | IC50 [3, 8]: 100 to 1000 nM | IC50 [3, 9]: 100 to 1000 nM

CC(C)(C)c1nc(-c2cccc(NS(=O)(=O)c3cccc(F)c3)c2F)c(-c2ccnc(N)n2)s1 [Example 218, N-{3-[5-(2-amino-4-pyrimidinyl)-2-(1,1-dimethylethyl)-1,3-thiazol-4-yl]-2-fluorophenyl}-3-fluorobenzenesulfonamide]
IC50 [1, 10]: ≤ 3.16 nM | IC50 [2, 7]: < 100 nM | IC50 [3, 9]: < 100 nM

COCCCNc1nccc(-c2sc(C(C)(C)C)nc2-c2cccc(NS(=O)(=O)c3cc(F)ccc3F)c2F)n1 [Example 211]
IC50 [1, 4]: < 100 nM | IC50 [1, 10]: ≤ 3.16 nM | IC50 [2, 6]: < 100 nM | IC50 [2, 7]: < 100 nM | IC50 [3, 8]: < 100 nM | IC50 [3, 9]: < 100 nM

CS(=O)(=O)CCNc1nccc(-c2sc(N3CCOCC3)nc2-c2ccc(F)c(NS(=O)(=O)c3c(F)cccc3F)c2)n1 [Example 202]
IC50 [1, 4]: < 100 nM | IC50 [1, 10]: 31.6 to 1000 nM | IC50 [2, 6]: 100 to 1000 nM | IC50 [2, 7]: 100 to 1000 nM | IC50 [3, 8]: > 1000 nM | IC50 [3, 9]: 1000 to 10000 nM
